Laboratory results: US7649010B2, “Carvedilol hydrobromide” (SmithKline Beechman Cork Limited, priority 2002, dated 2010)
Values after ≈ are worked out from the molar mass of the structure shown. Structures can show the parent of a compound that is named as a salt.

Columns and labels:
[1] = pKa of the α-hydroxyl secondary amine functional group; type: physicochemical
From the text: (§1) At lower pH values (i.e., at a pH of 1 to 4 in various buffer systems), solubility of carvedilol is limited by the solubility of its protonated form or its corresponding salt formed in-situ.

[2] = physchem; settings: thermodynamic from solid
From the text: as §1

[3] = test system: α-adrenergic; settings: cited from earlier work
[4] = test system: β-adrenoreceptor; settings: cited from earlier work
[5] = aqueous solubility of the crystalline salt compared with free base and other salts; type: physicochemical
[6] = solubility of the in-situ salt in acidic medium (simulated gastric fluid); type: physicochemical; settings: generated in-situ in an acidic medium, such as simulated gastric fluid

COc1ccccc1OCCNCC(O)COc1cccc2[nH]c3ccccc3c12 (racemic) [Carvedilol]
pKa [1]: 7.8
solubility ([2]; pH 5, aqueous buffer): ~0.1 mg/mL (≈ 246 µM)
solubility ([2]; pH 7, aqueous buffer): ~0.023 mg/mL (≈ 56.6 µM)
solubility ([2]; pH 9, aqueous buffer): < 0.001 mg/mL

COc1ccccc1OCCNC[C@@H](O)COc1cccc2[nH]c3ccccc3c12 (single isomer, unassigned) [R(+) enantiomer]
α-adrenergic blocking activity [3]: exhibited

COc1ccccc1OCCNC[C@H](O)COc1cccc2[nH]c3ccccc3c12 (single isomer, unassigned) [S(−) enantiomer]
nonselective β-adrenoreceptor blocking activity [4]: exhibited
α-adrenergic blocking activity [3]: exhibited

COc1ccccc1OCCNCC(O)COc1cccc2[nH]c3ccccc3c12 (stereo not shown) [carvedilol hydrobromide]
solubility compared to the free base of carvedilol ([5]; novel crystalline form): much higher solubility
aqueous solubility relative to free base or other crystalline salts (hydrochloride) ([5]; pure crystalline solid): much higher aqueous solubility

COc1ccccc1OCCNCC(O)COc1cccc2[nH]c3ccccc3c12.Cl (stereo not shown) [hydrochloride salt of carvedilol]
solubility relative to the protonated form of carvedilol [6]: less soluble
